According to patent US20120101169A1, “METHODS OF PROVIDING ANTICOAGULATION EFFECTS IN SUBJECTS” (Penwest Pharmaceuticals Co., priority 2010, published 2012):
Read-outs that look alike come from different tables or passages of the source. Marks after values point to notes of the source that are not given here.

What was measured:
factor II (prothrombin) = test: Extended coagulation biomarker panel: factor II; type: in vivo, human; conditions: Part 2, 0.67 g TID, Day 4
Excerpt: (§1) In Part 1 the extended panel was collected at screening and at check-in (Day −1) and Day 2 of each period unless the study results warranted a different sampling schedule. In Part 2, the same of the exploratory coagulation biomarkers were collected at screening, check-in, Day 4, and Day 8 in Cohorts 1 and 2, or at check-in, Day 7, and Day 14 in Cohorts 3 and 4 with the following exception: in Cohorts 3 and 4, platelet function was collected at check-in only or when medically indicated.

[1] = Food-effect and regimen pharmacokinetics, single 3-g daily ATQ dose (Example 5 Part 1); type: in vivo, human; conditions: for Cmax / AUC(0-inf) / Vd/F / half-life / Tmax: male, human, plasma, oral, 3 g; for Vd/F: read-out: Vz/F
Procedure: The study was conducted in 2 parts. Part 1 was conducted in healthy male subjects only while Part 2 was conducted in healthy male and female subjects. The intent of this study part was to optimize the dosage regimen and diet for the multiple-dose safety and tolerance Part 2 of the study. All plasma ATQ concentrations were determined using a GLP validated bioanalytical method. ATQ was administered as an oral solution in oil (0.49 g/mL). The placebo solution consisted of olive oil alone.
The dose of 3-g ATQ was selected for Part 1 as it most likely represented the high end of the exposure spectrum selected for the subsequent tolerance trial. For Part 1, serial blood samples for the measurement of the plasma levels of ATQ were collected prior to and following each oral dose administered on Day 1 through 36 hours following the morning dose on Day 1 (or 24 hours post-evening dose).

[2] = Single-dose ascending-dose pharmacokinetics of ATQ in healthy volunteers (Example 4); conditions: for CL/F: fed conditions, mean
Procedure: Healthy adult male subjects were enrolled into 1 of 6 cohorts of 10 subjects, and randomly assigned to receive either alpha-tocopherolquinone (ATQ) (8 subjects) in olive oil or placebo (2 subjects). Safety, tolerability and PK characteristics of ATQ were assessed under fasted conditions (low dose of 0.25 g and 0.5 g) and fed conditions (range of 0.5 g to 6.0 g), during co-administration with 400 IU vitamin E (2.0 g), and following a 2.2 g total dose administered in 3 equally-divided doses of 0.735 g, and 7 hours apart. There was a 2-week interval between dosing of cohorts while a medical review of the data collected on the preceding dose was conducted. Blood samples for the measurement of ATQ concentration were collected pre-dose and up to 168 hours following dose administration. All plasma ATQ concentrations were determined using a GLP validated bioanalytical method. Blood samples for the measurement of vitamin E concentrations were collected prior to and at 24 hours following dose administration (Cohorts 1, 2, and 3) and serially for up to 24 hours in Cohorts 4 through 6 except for Cohort 4, Period 2 (vitamin E co-administration) where samples were collected for up to 96 hours. Urine was collected for the measurement of ATQ and its metabolites in pooled intervals up to 72 hours post-dose for all cohorts.

factor V = test: Extended coagulation biomarker panel: factor V; parameters: species or system human; conditions: in vivo
Excerpt: as §1

protein C = test: Extended coagulation biomarker panel: protein C; type: in vivo, human; conditions: Part 2, 0.67 g TID, Day 4
Excerpt: as §1

[3] = Safety and tolerability of (R,R,R) α-tocopherol quinone in healthy male and female subjects (Example 1); conditions: high and moderate fat meal
Procedure: The safety and tolerability of (R,R,R) α-tocopherol quinone was tested in healthy male and female subjects. Twelve subjects were divided into two groups of six subjects each (Groups A and B). Group A was administered 1.5 g of a (R,R,R) α-tocopherol quinone twice a day for one day. Group B was administered 1.0 g of (R,R,R) α-tocopherol quinone three times a day for 1 day. Both groups of subjects were fed under high and moderate fat meal content.

[4] = 3-g BID, high-fat meal, mean, N = 6
[5] = 3-g BID, standard meal, mean, N = 6
[6] = 3-g TID, high-fat meal, mean, N = 5
[7] = 3-g TID, standard meal, mean, N = 6

CC1=C(C)C(=O)C(CC[C@](C)(O)CCC[C@H](C)CCC[C@H](C)CCCC(C)C)=C(C)C1=O [ATQ, alpha-tocopherolquinone]
Decrease from baseline activity of factor II (factor II (prothrombin)): 51% | CLpo [1, 4]: 21.4 L/h | CLpo [1, 5]: 22.0 L/h | CLpo [1, 6]: 18.2 L/h | CLpo [1, 7]: 18.1 L/h | Overall exposure (AUC) BID versus TID ([1]; 3-g dose as 2×1.5-g every 12 hours or 3×1.0-g every 6 hours): similar | Cmax ([1]; 3-g BID (2×1.5 g 12 h apart), high-fat meal, baseline-adjusted, mean, N = 6, read-out: Cmax): 13400 ng/mL | Cmax ([1]; 3-g BID (2×1.5 g 12 h apart), standard meal, baseline-adjusted, mean, N = 6, read-out: Cmax): 15300 ng/mL | AUC(0-inf) ([1]; 3-g BID, high-fat meal, baseline-adjusted, mean, N = 6): 152 µg·h/mL | Vd/F [1, 4]: 132 L | half-life ([1]; 3-g BID, high-fat meal, mean, N = 6, read-out: t1/2 (converted)): 4.2 h | Tmax ([1]; 3-g BID, high-fat meal, median, N = 6, read-out: Tmax): 10.5 h | AUC(0-inf) ([1]; 3-g BID, standard meal, baseline-adjusted, mean, N = 6): 157 µg·h/mL | Vd/F [1, 5]: 143 L | half-life ([1]; 3-g BID, standard meal, mean, N = 6, read-out: t1/2 (converted)): 4.34 h | Tmax ([1]; 3-g BID, standard meal, median, N = 6, read-out: Tmax): 6 h | Cmax ([1]; 3-g TID (3×1.0 g 6 h apart), high-fat meal, baseline-adjusted, mean, N = 5, read-out: Cmax): 14200 ng/mL | Cmax ([1]; 3-g TID (3×1.0 g 6 h apart), standard meal, baseline-adjusted, mean, N = 6, read-out: Cmax): 15000 ng/mL | AUC(0-inf) ([1]; 3-g TID, high-fat meal, baseline-adjusted, mean, N = 5): 178 µg·h/mL | Vd/F [1, 6]: 122 L | half-life ([1]; 3-g TID, high-fat meal, mean, N = 5, read-out: t1/2 (converted)): 4.88 h | Tmax ([1]; 3-g TID, high-fat meal, median, N = 5, read-out: Tmax): 17.5 h | AUC(0-inf) ([1]; 3-g TID, standard meal, baseline-adjusted, mean, N = 6): 169 µg·h/mL | Vd/F [1, 7]: 139 L | half-life ([1]; 3-g TID, standard meal, mean, N = 6, read-out: t1/2 (converted)): 5.37 h | Tmax ([1]; 3-g TID, standard meal, median, N = 6, read-out: Tmax): 12.7 h | Cmax ([1]; single 3-g daily dose, across treatments, read-out: mean Cmax range): 13400 to 15300 ng/mL | half-life ([1]; single 3-g daily dose, across treatments, read-out: mean t1/2 values (range across treatments)): 4.2 to 5.37 h | Tmax ([1]; single 3-g daily dose, across treatments, read-out: median Tmax (range across treatments)): 6 to 17.5 h | ATQ exposure (Cmax and AUC) high-fat versus standard meal ([1]; single 3-g daily dose): no difference | Increase in bioavailability with a high-fat meal ([2]; 0.5 g with high-fat meal versus fasted): over 60 fold | ATQ concentration versus time profile with and without vitamin E ([2]; 2 g QD dose, with and without 400-IU of vitamin E): essentially unchanged | CL/F ([2]; 2.2 g (0.735 g TID), N = 8): 22.731 L/h | Effect of dividing the dose on ATQ bioavailability ([2]; 2.2 g as 3 doses of 0.735 g 7 hours apart rather than a single unit): significantly increased ATQ bioavailability | Baseline-adjusted ATQ concentration at 24 hours as share of Cmax ([2]; 24 hours post-dose): less than 1% | Tmax ([2]; male, human, plasma, oral): 6 h | Time for ATQ concentrations to return to endogenous baseline levels ([2]; post-dose): ≤ 24 h | CL/F ([2]; single 0.5 g dose, N = 6): 25.910[b] L/h | CL/F ([2]; single 1.0 g dose, N = 7): 15.950[c] L/h | CL/F ([2]; single 2.0 g dose, N = 7): 33.404[c] L/h | CL/F ([2]; single 6.0 g dose, N = 6): 62.824[b] L/h | Dose proportionality of absorption ([2]; single doses 0.5 g to 6.0 g after high-fat breakfast): dose proportional between 0.5 g and 1 g but was blunted at higher doses | Absorption under fasted conditions ([2]; single oral doses 0.25 g and 0.5 g, fasted): poorly absorbed | Unchanged ATQ in urine samples ([2]; urine collected up to 72 hours post-dose): not detected | Effect on the activity of factor V (factor V): did not appear to affect | Protein C activity (protein C): 109% | Safety and tolerability (side effects) ([3]; Group A: 1.5 g twice a day for one day): no side effects were observed | Safety and tolerability (side effects) ([3]; Group B: 1.0 g three times a day for 1 day): no side effects were observed
